Measurements as given in US20240358025A1, “INSECT, BACTERIAL, AND/OR FUNGAL CONTROL COMPOSITION” (priority 2021, published 2024).

Key:
[1] = system: Pseudomonas aeruginosa ATCC 9027; test: Inhibition assay of essential oils and pairings in base solution, log reduction and synergy; assay type: cell-based; settings: pairing Clove + Geraniol; log reduction of pairing divided by that of the pure oil named
Banded crickets [2] = test: Residual insecticides against banded crickets (surfaces aged 7 DAT); assay type: in vivo; settings: 0.75 gallons per acre
Protocol: Post-Treatment Arenas: 20 oz. […] A potato cutting was added as a food source. Clean post-treatment arenas were used to contain the test systems after exposure to the test substances.
(§1) The test substances were shaken and then mixed at a rate of 5.324 mL of concentrate per 200 ml of water.
The diluted test substances were adequately shaken prior to applications. A track spraying jig was used to make a linear application. […] This equated to a treatment rate of 0.75 gallons per acre.

[3] = system: Candida albicans ATCC 10231; test: Inhibition assay of essential oils and pairings in base solution, log reduction and synergy; assay type: cell-based; settings: log reduction of pairing divided by that of the pure oil named
Escherichia coli = test: E. coli growth inhibition by individual components and combinations (CFU count); assay type: cell-based; settings: for CFUs / CFUs/mL: CFU after 24 hours; for reduction of growth of E. coli (in words): component alone
Protocol: (§2) Escherichia coli was grown in the presence of each component or combinations to determine the inhibitory potential. […] The appropriate amount of each component was added to 5 mL of LB media, and each culture was inoculated with 50 μL of a 12 hour old culture of E. coli. The cultures were grown for 12 hours at 37° C. with shaking at 225 rpm before being serial diluted and plated onto solid LB agar plates (5 μL per plate) in triplicate. Plates were incubated for 24 hours at 37° C., and then colonies were counted to determine the inhibitory potential.

E. coli = E. coli growth inhibition, essential oil comparison in the non-essential oil fraction (CFU count); assay type: cell-based, Escherichia coli; settings: oils in non-essential oil fraction
Protocol: as §2
Combinations of essential oils, each at the concentration indicated in Example 1, were assayed for their inhibitory potential in a similar manner as Example 1.
The essential oils were then tested in the non-essential oil fraction for synergy. […] Also, there was increasing antimicrobial action of the essential oils related to the combination of the oils leading to the highest activity found in the Essential Oil-Ark product.

Banded crickets [4] = test: Direct spray insecticides against banded crickets; assay type: in vivo; settings: 0.75 gallons per acre
Protocol: The Test Arenas were used to contain the test systems during the test substance applications.
Post-Treatment Arenas: 20 oz. SOLO cups with mesh lids were used as post-treatment arenas. A potato cutting was added as a food source. Clean post-treatment arenas were used to contain the test systems after exposure to the test substances.
Application Equipment: A compressed air sprayer with a flat fan nozzle, pressurized to 20 PSI was used to make applications.
as §1
The diluted test substances were adequately shaken prior to applications. A track spraying jig was used to make a linear application. A single cartridge containing 10 test systems was placed in the middle of the spray path. […] This equated to a treatment rate of 0.75 gallons per acre.
The observations were made by raising the test arenas and gently blowing air on the test systems to provoke movement, lightly prodding the test systems, or the test arenas were shaken/agitated to provoke test system movement.
The test systems were transferred from the Treatment Arenas into the clean Post-Treatment Arenas 1 hour after the applications.

| Compound | Synergistic advantage [1] [%] | Average Percent Mortality (Banded crickets [2]; surface aged 7 DAT, 3 DAT) [%] | efficacy as a residual insecticide (in words) (Banded crickets [2]; up to 7 days after treatment) | Synergistic advantage ([3]; pairing Geraniol + Garlic) [%] | Synergistic advantage ([3]; pairing Geraniol + Peppermint) [%] | Synergistic advantage ([3]; pairing Geraniol + Rosemary) [%] | Synergistic advantage ([3]; pairing Geraniol + Thyme) [%] | CFUs (Escherichia coli) [CFUs] | CFUs/mL (Escherichia coli) [CFUs/mL] | Avg (E. coli; CFU after 24 hours) | CFUs (E. coli; CFU after 24 hours) [CFUs] | CFUs/mL (E. coli; CFU after 24 hours) [CFUs/mL] | antimicrobial activity (in words) (E. coli) | efficacy as a direct kill insecticide (in words) (Banded crickets [4]) | Average Percent Mortality (Banded crickets [4]; 2 DAT) [%] | reduction of growth of E. coli (in words) (Escherichia coli) |
| --- | --- | --- | --- | --- | --- | --- | --- | --- | --- | --- | --- | --- | --- | --- | --- | --- |
| CC(C)=CCC/C(C)=C/CO [Geraniol] | 106.3 | 10 | did not provide high levels of mortality | 120.9 | 103.9 | 103.9 | 103.9 | 2 | 40 | 43.333 | 43333 | 866660 | highest activity of the essential oils | did not provide high levels of mortality | 33 |  |
| CCCCCCCCCCCCCCCCCC(=O)OCC(O)CO (stereo not drawn) [Glyceryl Monostearate] |  |  |  |  |  |  |  | 8330000 | 166600000 |  |  |  |  |  |  | did not substantially reduce growth of E. coli |
| C/C=C/C=C/C(=O)[O-].[K+] [Potassium Sorbate] |  |  |  |  |  |  |  | 13000000 | 260000000 |  |  |  |  |  |  | did not substantially reduce growth of E. coli |
